PubChem BioAssay AID1188 (EPA DSSTox, 2008)
Activity calls are given as the source filed them.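 The calls were made as follows: active = a concentration killing half the fathead minnows in the acute test was determined; inconclusive = some fish died but not half at top dose; inactive = no fish died even at top dose.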

Tested on: Fathead minnow (Pimephales promelas) acute toxicity, lethality
Experiment: DSSTox (EPAFHM) EPA Fathead Minnow Acute Toxicity
Text: The EPA Fathead Minnow Acute Toxicity database was generated by the U.S. EPA Mid-Continental Ecology Division (MED) for the purpose of developing an expert system to predict acute toxicity from chemical structure based on mode of action considerations. […] A second valuable aspect of this database, from a QSAR modeling perspective, is the inclusion of general mode-of-action (MOA) classifications of acute toxicity response for individual chemicals derived from study results. MOA assignments are biologically based classifications, allowing definition of chemical similarity based upon biological activity instead of organic chemistry functional class as most commonly employed in QSAR study. MOA classifications should strengthen the scientific basis for construction of individual QSARs. However, it is cautioned that the broad MOA categorizations should not be construed to represent a single molecular mechanism; for example, CNS seizure agents and respiratory inhibitors are known to act through a variety of receptors. The EPA Fathead Minnow database and results have been used by EPA MED to build components of the ASTER prediction system, which incorporates MOA-based QSARs for the prediction of aquatic toxicity of environmental and industrial chemicals. Briefly, MOA classifications for individual chemicals, derived from experiments and provided in the EPA Fathead Minnow database, were used to derive substructural rules for assigning a new chemical to an MOA category based solely on chemical structure. Once a new chemical is assigned to an MOA category on this basis, the logP-based QSAR for that MOA category is applied.
The DSSTox EPAFHM database (available from the DSSTox Source URL) includes information pertaining to organic chemical class assignments (ChemClass_FHM), acute toxicity in fathead minnow (LC50_mg), dose-response assessments (LC50_Ratio, ExcessToxicityIndex), behavioral assessments (FishBehaviorTest), joint toxicity MOA evaluations of mixtures (MOA_MixtureTest), and additional MOA evaluation of fish acute toxicity syndrome (FishAcuteToxSyndrome) in rainbow trout. All of these indicators, to the extent available, were considered in the determination of MOA and, additionally, were used to determine a level of confidence in the MOA assignment for each chemical (MOA_Confidence). […] Activity Score is mapping of LOG10 (1/LC50_mmol) activity values spanning activity range [MIN, MAX] onto Integer 1-100 Activity range, where 100 is highest potency and 1 is lowest. If Activity Outcome is "active": Activity Score = 100 * INTEGER[(log10(1/ LC50_mmol) - MIN)/([…])].

| SMILES | Potency | outcome |
| --- | --- | --- |
| CNC(=O)O/N=C(\SC)C(=O)N(C)C | 30.9 µM | – |
| COc1cc(C=O)ccc1O | 551 µM | – |
| CCC[CH2][Sn]([CH2]CCC)([CH2]CCC)[CH2]CCC | 0.13 µM | – |
| OCCN1CCNCC1 | 49200 µM | – |
| CC(=O)CCC=C(C)C | 679 µM | – |
| CC(C)CC=O | 37.7 µM | – |
| C=C(CCl)CCl | 1.52 µM | – |
| OCCOCCO | 709000 µM | – |
| CC(C)(C)SC(C)(C)C | 199 µM | – |
| CN(C)C(=O)Nc1ccc(Cl)c(Cl)c1 | 60.9 µM | – |
| CCCCC(CC)CO (configuration not stated) | 217 µM | – |
| NC(=O)c1c(Cl)cccc1Cl | 2470 µM | – |
| CSCCCCCCSC | 56.6 µM | – |
| Cc1ccccc1O | 129 µM | – |
| OCCOCCOCCO | 459000 µM | – |
| O=S(c1ccccc1)c1ccccc1 | 432 µM | – |
| Fc1ccc(Oc2ccc(F)cc2)cc1 | 5.48 µM | – |
| CCCSCCC | 184 µM | – |
| CCCCCCCCOC(=O)c1ccccc1C(=O)OCCCCCCCC | – | inactive; moa not determined either due to lack of toxicity at saturation or late test res |
| CCOC(N)=O | 58800 µM | – |
| CCOP(=S)(OCC)Oc1nc(Cl)c(Cl)cc1Cl | 0.907 µM | – |
| Oc1ccccc1O | 83.7 µM | – |
| O=C(Nc1ccccc1)c1ccccc1O | 18.5 µM | – |
| Cc1ccc([N+](=O)[O-])c(OP(=O)(Oc2cc(C)ccc2[N+](=O)[O-])Oc2cc(C)ccc2[N+](=O)[O-])c1 | – | inactive; moa not determined either due to lack of toxicity at saturation or late test res |
| CN(C)N | 131 µM | – |
| CCOC(=O)c1ccccc1C(=O)OCC | 143 µM | – |

| SMILES | Potency | outcome |
| --- | --- | --- |
| CC(O)CCl (configuration not stated) | 2590 µM | – |
| ClC(Cl)C(Cl)Cl | 121 µM | – |
| CC(=O)CC(=O)c1ccccc1 | 6.78 µM | – |
| OCCOc1ccccc1 | 2490 µM | – |
| Cc1cc(Cl)nc(N)n1 | 982 µM | – |
| ClCC(Cl)Cl | 612 µM | – |
| Nc1cccc(OCc2ccccc2)c1 | 45.9 µM | – |
| BrCCCBr | 10.4 µM | – |
| O=c1cccc(Cl)[nH]1 | 1650 µM | – |
| C[N+](C)(C)C | 4220 µM | – |
| Brc1nc(Br)c(Br)[nH]1 | 20.1 µM | – |
| Clc1ccccc1 | 150 µM | – |
| CCOC(=O)c1cccc(N)c1 | 302 µM | – |
| CCCCCCCCCCCCN | 0.556 µM | – |
| CCCCCCCCc1ccc(N)cc1 | 0.584 µM | – |
| Cc1ccccc1 | 368 µM | – |
| Oc1ccc(Oc2ccc(O)cc2)cc1 | 28.6 µM | – |
| CCCCCCCCN | 40.2 µM | – |
| CCC(C)C=O (configuration not stated) | 116 µM | – |
| Cc1cc(C)c(O)c(C)c1 | 95.4 µM | – |
| Cc1nnc(N)nc1C | 7670 µM | – |
| CCCCC(C)=O | 4270 µM | – |
| Cc1ccc(OP(=O)(Oc2ccc(C)c(C)c2)Oc2ccc(C)c(C)c2)cc1C | – | inactive; moa not determined either due to lack of toxicity at saturation or late test res |
| O=Cc1ccc(Oc2ccccc2)cc1 | 23.2 µM | – |
| O=S(=O)([O-])c1ccc[n+](Cc2ccccc2)c1 | 9670 µM | – |
| CCCCCCCCC#N | 37.7 µM | – |

| SMILES | Potency | outcome |
| --- | --- | --- |
| Oc1c(I)cc(I)cc1I | 2.56 µM | – |
| C=CCc1ccccc1O | 112 µM | – |
| COC(=O)c1ccc(C(=O)OC)c([N+](=O)[O-])c1 | 27.3 µM | – |
| N#Cc1cccc(C(F)(F)F)c1 | 279 µM | – |
| c1ccc(-c2ccncc2)cc1 | 104 µM | – |
| CCCCOC(=O)c1cccc(C(=O)OCCCC)c1 | 3.23 µM | – |
| Clc1cccc(Cl)c1 | 54.6 µM | – |
| ClC(Cl)C(Cl)(Cl)Cl | 37.2 µM | – |
| O=Cc1cc([N+](=O)[O-])ccc1Cl | 20.9 µM | – |
| OC1CCCCC1 | 7030 µM | – |
| Nc1ccc([N+](=O)[O-])cc1Cl | 116 µM | – |
| C#CC(C)(O)C(C)C (configuration not stated) | 1830 µM | – |
| O=C(O)C[n+]1ccccc1 | 933 µM | – |
| CCOC(=O)CC(=O)OCC | 91.8 µM | – |
| O=[N+]([O-])c1ccccc1O | 1150 µM | – |
| ClCC(Cl)CCl | 391 µM | – |
| O=c1cc[nH]c(=O)[nH]1 | – | inactive; moa not determined either due to lack of toxicity at saturation or late test res |
| COc1ccc(O)cc1 | 886 µM | – |
| Nc1c(F)c(F)c(F)c(F)c1F | 203 µM | – |
| CC1(C)CCC(C)(C)O1 | 1310 µM | – |
| CNC(=O)Oc1ccc(N(C)C)c(C)c1 | 9.36 µM | – |
| CCCOC(C)=O | 587 µM | – |
| Oc1ccc(Oc2ccccc2)cc1 | 26.6 µM | – |
| O=[N+]([O-])c1cc([N+](=O)[O-])c(Cl)cc1Cl | 0.192 µM | – |
| CCCCOC(=O)CCC(=O)OCCCC | 19.4 µM | – |
| COCCN | 6980 µM | – |

| SMILES | Potency | outcome |
| --- | --- | --- |
| Oc1ccccc1-c1ccccc1 | 36.1 µM | – |
| CCC(C)C(C)C=O (configuration not stated) | 140 µM | – |
| Oc1ccc(Cl)cc1Cl | 47.5 µM | – |
| O=[N+]([O-])c1ccc(Oc2ccccc2)cc1 | 12.3 µM | – |
| Cc1ccccc1C=O | 440 µM | – |
| CCCCCN | 2030 µM | – |
| BrC(Br)c1ccccc1C(Br)Br | 1.04 µM | – |
| C#CCCO | 515 µM | – |
| Cc1ccncc1 | 4330 µM | – |
| CCc1ccc(N)cc1 | 602 µM | – |
| CCCCCC(C)=O | 1150 µM | – |
| COc1ccc(OC)cc1 | 847 µM | – |
| [N-]=[N+]=[N-] | 84 µM | – |
| CCOP(=S)(OCC)SCCSCC | 9.95 µM | – |
| CCC(C)(C)c1ccc(O)cc1 | 15.8 µM | – |
| ClCCl | 3890 µM | – |
| COc1cccc(O)c1 | 596 µM | – |
| CCCCCO | 5360 µM | – |
| O=[N+]([O-])c1cccc(P(=O)(c2cccc([N+](=O)[O-])c2)c2cccc([N+](=O)[O-])c2)c1 | – | inactive; moa not determined either due to lack of toxicity at saturation or late test res |
| CNc1ccc(F)cc1 | 307 µM | – |
| CCSCCSCC | 401 µM | – |
| ClCCCCCl | 406 µM | – |
| CCSCCCCSCC | 34 µM | – |
| CCCCc1ccc(N)cc1 | 68 µM | – |
| CCCSCCCCSCCC | 14.5 µM | – |
| CC1CNCCN1 (configuration not stated) | 22400 µM | – |

| SMILES | Potency | outcome |
| --- | --- | --- |
| COc1ccc(C(C)=O)c(OC)c1OC | 947 µM | – |
| CCN(CC)C(=O)c1cccc(C)c1 | 575 µM | – |
| CCNCC | 11700 µM | – |
| CC(=O)c1ccc(Cl)cc1Cl | 68.9 µM | – |
| Oc1c(Br)cc(Br)cc1Br | 19.8 µM | – |
| O=Cc1ccc(Cl)cc1 | 15.6 µM | – |
| CC1(C)[C@H]2CC[C@]1(C)C(=O)C2 | 112 µM | – |
| CCCCOc1ccccc1 | 38 µM | – |
| OC(C(F)(F)F)C(F)(F)F | 1450 µM | – |
| NC(=O)c1ccc(Cl)cc1Cl | 503 µM | – |
| CC(N)Cc1ccccc1 (configuration not stated) | 78.2 µM | – |
| CN(C)c1ccccn1 | 1040 µM | – |
| C1CN2CCN1CC2 | 15400 µM | – |
| CCOCC | 34500 µM | – |
| Nc1ccccc1 | 1130 µM | – |
| CNc1ccccc1 | 933 µM | – |
| Oc1ccc(Cl)cc1O | 10.9 µM | – |
| c1cc[c]([Sn]([c]2ccccc2)([c]2ccccc2)[c]2ccccc2)cc1 | – | inactive; moa not determined either due to lack of toxicity at saturation or late test res |
| N#Cc1cc(Cl)ccc1N | 187 µM | – |
| COC(=O)c1ccc(O)cc1O | 272 µM | – |
| CCCCCCCCCCO | 15.2 µM | – |
| Nc1ccccc1Cl | 45 µM | – |
| C=C(C)C(=O)OC(C)C | 296 µM | – |
| C#CC(C)(O)CCC(C)C (configuration not stated) | 349 µM | – |
| CCC(C)n1c(=O)[nH]c(C)c(Br)c1=O (configuration not stated) | 712 µM | – |
| c1ccc(-c2cccc(-c3ccccc3)n2)cc1 | 0.908 µM | – |

| SMILES | Potency | outcome |
| --- | --- | --- |
| O=Cc1c(F)c(F)c(F)c(F)c1F | 5.61 µM | – |
| CCCCCCCCCCCCCN | 0.328 µM | – |
| COC(=O)c1ccc(Cl)cc1[N+](=O)[O-] | 128 µM | – |
| CCOC(CN(C)CC(OCC)OCC)OCC | 2410 µM | – |
| c1ccc2ccccc2c1 | 47.9 µM | – |
| CCCCC=O | 150 µM | – |
| O=C(Oc1ccccc1)c1ccccc1C(=O)Oc1ccccc1 | 0.251 µM | – |
| O=S(Cc1ccccc1)Cc1ccccc1 | 348 µM | – |
| CCCCCCCCOC(=O)c1ccc(C(=O)OCCCCCCCC)cc1 | – | inactive; moa not determined either due to lack of toxicity at saturation or late test res |
| CCCCCCOC(C)=O | 30.5 µM | – |
| c1ccccc1 | 225 µM | – |
| CC1(C)C(C=C(Cl)Cl)C1C(=O)OCc1cccc(Oc2ccccc2)c1 (configuration not stated) | 0.0409 µM | – |
| Cc1ccccc1F | 176 µM | – |
| CC(=O)c1cccn1C | 1280 µM | – |
| C=CCC1(C(C)CCC)C(=O)N=C(O)NC1=O (configuration not stated) | 90.7 µM | – |
| CN(C)c1ccccc1 | 529 µM | – |
| NCc1ccccc1 | 952 µM | – |
| Oc1ccc(Cl)cc1 | 47.5 µM | – |
| Clc1cc(Cl)c(SSc2cc(Cl)c(Cl)cc2Cl)cc1Cl | – | inactive; moa not determined either due to lack of toxicity at saturation or late test res |
| CCC(=O)CC | 17900 µM | – |
| C1=CC2CCC1C2 | 106 µM | – |
| O=C(O)c1ccccc1 | 3360 µM | – |
